Assay results as given in EPA's ToxRefDB 2.

How the values were obtained:
rat [1] = conditions: Subchronic oral toxicity in rodents, fischer, Gavage/Intubation, dose end: 14 week, group: systemic
mouse [2] = conditions: Carcinogenicity, b6c3f1, Oral, Gavage/Intubation, dose end: 105 week, group: systemic
mouse [3] = conditions: Subchronic oral toxicity in rodents, b6c3f1, Gavage/Intubation, dose end: 14 week, group: systemic
rat [4] = conditions: Carcinogenicity, fischer, Oral, Gavage/Intubation, dose end: 104 week, group: systemic
rat [5] = conditions: Combined chronic toxicity/carcinogenicity, fischer, Dermal, Topical, dose end: 2 year, group: systemic
mouse [6] = conditions: Subchronic oral toxicity in rodents, b6c3f1, Dermal, Topical, dose end: 14 week, group: systemic
rat [7] = conditions: Subchronic oral toxicity in rodents, fischer, Dermal, Topical, dose end: 14 week, group: systemic
mouse [8] = conditions: Carcinogenicity; b6c3f1; Dermal; Topical; dose end: 2 year; group: systemic; systemic / pathology microscopic / skin / hyperplasia
rat [9] = conditions: Prenatal developmental toxicity study, sprague dawley, Oral, Gavage/Intubation, dose end: 15 GD, group: maternal
rat [10] = conditions: Multigenerational reproductive toxicity study, wistar, Oral, Feed, dose end: 2 generation
rat [11] = conditions: Multigenerational reproductive toxicity study, wistar, Oral, Feed, dose end: 2 generation; remark: listed apart in the source
rat [12] = conditions: Multigenerational reproductive toxicity study, long evans, Oral, Feed, dose end: 2 generation
dog = conditions: Chronic toxicity; beagle; Oral; Capsule; dose end: 52 week; group: systemic; systemic / in life observation / body weight / body weight gain
[13] = systemic / organ weight / kidney / relative to body weight
[14] = systemic / organ weight / kidney / relative to body weight + systemic / clinical chemistry / alanine aminotransferase (alt/sgpt) / alanine …
[15] = systemic / pathology microscopic / kidney / glomerulonephropathy + systemic / pathology microscopic / liver / [other] + systemic / pathology…
[16] = systemic / pathology microscopic / liver / clear cell focus + systemic / pathology microscopic / nose / degeneration + systemic / pathology …
[17] = systemic / organ weight / liver / absolute + systemic / organ weight / liver / relative to body weight
[18] = systemic / pathology microscopic / liver / basophilic focus + systemic / pathology microscopic / liver / fatty change + systemic / pathology…
[19] = systemic / pathology microscopic / skin / hyperplasia
[20] = systemic / in life observation / clinical signs / skin discoloration + systemic / organ weight / liver / absolute + systemic / organ weight…
[21] = systemic / in life observation / body weight / body weight gain + systemic / in life observation / food consumption / food consumption + …
[22] = group: offspring, systemic / in life observation / body weight / offspring (pup) weight
[23] = group: offspring, systemic / in life observation / body weight / offspring (pup) weight + developmental / offspring survival late / lactation index / …
[24] = group: parental, systemic / in life observation / body weight / body weight + systemic / in life observation / body weight / body weight gain
[25] = group: parental, systemic / in life observation / body weight / body weight + systemic / in life observation / body weight / body weight gain + systemic / …
[26] = group: reproductive, reproductive / offspring survival early / litter size / litter size
[27] = group: offspring, systemic / in life observation / clinical signs / body cold to touch + systemic / in life observation / clinical signs / emaciation + …
[28] = group: offspring, systemic / in life observation / body weight / offspring (pup) weight + developmental / offspring survival late / viability index / …

What does the source list for CC(C)=C1CC[C@@H](C)CC1=O [R-(+)-Pulegone]?
LEL (rat [1]; [13]): 9.38 mg/kg/day; NEL (rat [1]; [13]): < 9.38 mg/kg/day; LOAEL (rat [1]; [14]): > 150 mg/kg/day; NOAEL (rat [1]; [14]): ≥ 150 mg/kg/day; LOAEL (mouse [2]; [15]): 75 mg/kg/day; NOAEL (mouse [2]; [15]): 37.5 mg/kg/day; LEL (mouse [2]; [16]): 37.5 mg/kg/day; NEL (mouse [2]; [16]): < 37.5 mg/kg/day; LEL (mouse [3]; systemic / organ weight / liver / absolute): 18.8 mg/kg/day; LOAEL (mouse [3]; [17]): > 150 mg/kg/day; NEL (mouse [3]; [17]): 9.38 mg/kg/day; NOAEL (mouse [3]; [17]): ≥ 150 mg/kg/day; LOAEL (rat [4]; systemic / pathology microscopic / kidney / glomerulonephropathy + systemic / pathology microscopic / liver / basophilic focus + systemic / …): 37.5 mg/kg/day; LEL (rat [4]; [18]): 18.8 mg/kg/day; NEL (rat [4]; [18]): < 18.8 mg/kg/day

What does the source list for Cc1ccc(S(=O)(=O)[O-])cc1C.[Na+] [Sodium xylenesulfonate]?
LEL (rat [5]; [19]): 60 mg/kg/day; LOAEL (rat [5]; [19]): 120 mg/kg/day; NEL (rat [5]; [19]): < 60 mg/kg/day; NOAEL (rat [5]; systemic / pathology microscopic / skin / hyperplasia + systemic / in life observation / clinical signs / [other]): 60 mg/kg/day; LEL (mouse [6]; [19]): 170 mg/kg/day; LOAEL (mouse [6]; [19]): 1300 mg/kg/day; NEL (mouse [6]; [19]): 60 mg/kg/day; NOAEL (mouse [6]; systemic / pathology microscopic / skin / hyperplasia + systemic / in life observation / body weight / body weight gain): 440 mg/kg/day; NEL (rat [7]; systemic / in life observation / clinical signs / skin discoloration): 800 mg/kg/day; LOAEL (rat [7]; [20]): > 500 mg/kg/day; NOAEL (rat [7]; [20]): ≥ 500 mg/kg/day; LEL (mouse [8]): 364 mg/kg/day; LOAEL (mouse [8]): 364 mg/kg/day; NEL (mouse [8]): 182 mg/kg/day; NOAEL (mouse [8]): 182 mg/kg/day

Which LOAEL (rat [9]; systemic / in life observation / body weight / body weight gain + systemic / in life observation / food consumption / food consumption) does the source give for Cc1ccc(N(SC(F)(Cl)Cl)S(=O)(=O)N(C)C)cc1 [Tolylfluanid] here?
Its LOAEL is 1000 mg/kg/day.

And the LEL (rat [9]; [21])?
The LEL was 1000 mg/kg/day.

And the NEL (rat [9]; [21])?
Its NEL is 300 mg/kg/day.

What about the NOAEL (rat [9]; [21]) of the same compound?
Its NOAEL is 300 mg/kg/day.

What about the LEL (rat [10]; [22]) of the same compound?
Its LEL is 83.4 mg/kg/day.

And the LOAEL (rat [10]; [22])?
The LOAEL was 83.4 mg/kg/day.

What about the NEL (rat [10]; [23]) of the same compound?
The NEL was 20.1 mg/kg/day.

What about the NOAEL (rat [10]; [23]) of the same compound?
Its NOAEL is 20.1 mg/kg/day.

And the LEL (rat [10]; [24])?
The LEL was 83.4 mg/kg/day.

And the LOAEL (rat [10]; [24])?
The LOAEL was 83.4 mg/kg/day.

And the NEL (rat [10]; [25])?
The NEL was 20.1 mg/kg/day.

And the NOAEL (rat [10]; [25])?
Its NOAEL is 20.1 mg/kg/day.

What about the LEL (rat [10]; [26]) of the same compound?
Its LEL is 336 mg/kg/day.

And the LOAEL (rat [10]; [26])?
The LOAEL was > 336 mg/kg/day.

And the NEL (rat [10]; [26])?
Its NEL is 83.4 mg/kg/day.

And the NOAEL (rat [10]; [26])?
The NOAEL was ≥ 336 mg/kg/day.

What about the LEL (rat [11]; [27]) of the same compound?
The LEL was 57.5 mg/kg/day.

What about the LOAEL (rat [11]; [27]) of the same compound?
The LOAEL was 57.5 mg/kg/day.

What about the NEL (rat [11]; [27]) of the same compound?
Its NEL is 7.9 mg/kg/day.

And the NOAEL (rat [11]; [27])?
The NOAEL was 7.9 mg/kg/day.

And the LEL (rat [11]; [25])?
The LEL was 75.2 mg/kg/day.

And the LOAEL (rat [11]; [25])?
Its LOAEL is 75.2 mg/kg/day.

What about the NEL (rat [11]; [25]) of the same compound?
Its NEL is 9.5 mg/kg/day.

What about the NOAEL (rat [11]; [25]) of the same compound?
The NOAEL was 9.5 mg/kg/day.

And the LEL (rat [11]; [26])?
The LEL was 70.4 mg/kg/day.

And the LOAEL (rat [11]; [26])?
Its LOAEL is 70.4 mg/kg/day.

And the NEL (rat [11]; [26])?
Its NEL is 9.1 mg/kg/day.

What about the NOAEL (rat [11]; [26]) of the same compound?
The NOAEL was 9.1 mg/kg/day.

And the LOAEL (rat [12]; group: offspring, systemic / in life observation / body weight / offspring (pup) weight + developmental / offspring survival late / [other] / [other])?
The LOAEL was 375 mg/kg/day.

And the LEL (rat [12]; group: offspring, systemic / in life observation / body weight / offspring (pup) weight + developmental / offspring survival late / [other] / [other] + …)?
Its LEL is 375 mg/kg/day.

And the NEL (rat [12]; [28])?
The NEL was 75 mg/kg/day.

And the NOAEL (rat [12]; [28])?
Its NOAEL is 75 mg/kg/day.

What about the LEL (rat [12]; [24]) of the same compound?
Its LEL is 375 mg/kg/day.

And the LOAEL (rat [12]; [24])?
The LOAEL was 375 mg/kg/day.

What about the NEL (rat [12]; [24]) of the same compound?
The NEL was 75 mg/kg/day.

And the NOAEL (rat [12]; [24])?
Its NOAEL is 75 mg/kg/day.

What about the LEL (dog) of the same compound?
Its LEL is 62.5 mg/kg/day.

And the LOAEL (dog)?
The LOAEL was 62.5 mg/kg/day.
